Test results: ChEMBL document CHEMBL6109159, “Discovery of a Potent and Selective Protein Arginine Methyltransferase 5 (PRMT5) PROTAC Degrader” (J Med Chem, 2025)
Active and inactive are the calls of the source. The rule behind the calls is not given here.

Experiments:
[1] = target: T1, von Hippel-Lindau disease tumor suppressor/Protein arginine N-methyltransferase 5 (Homo sapiens, UniProt O14744+P40337); assay: PROTAC activity at PRMT5/VHL in human MDA-MB-468 cells assessed as degradation measured at 0.5 uM after 72 hrs by Western blot analysis; format: cell-based
[2] = target: T1, von Hippel-Lindau disease tumor suppressor/Protein arginine N-methyltransferase 5; assay: PROTAC activity at PRMT5/VHL in human MDA-MB-468 cells assessed as degradation measured at 5 uM after 72 hrs by Western blot analysis; format: cell-based
[3] = target: T2, von Hippel-Lindau disease tumor suppressor/Methylosome protein WDR77 (Homo sapiens, UniProt Q9BQA1+P40337); assay: PROTAC activity at MEP50/VHL in human MDA-MB-468 cells assessed as degradation measured at 0.5 uM after 72 hrs by Western blot analysis; format: cell-based
[4] = target: T2, von Hippel-Lindau disease tumor suppressor/Methylosome protein WDR77; assay: PROTAC activity at MEP50/VHL in human MDA-MB-468 cells assessed as degradation measured at 5 uM after 72 hrs by Western blot analysis; format: cell-based
[5] = system: MDA-MB-468; assay: Cytotoxicity against human MDA-MB-468 cells assessed as cell viability measured after 7 days by CCK-8 assay; format: functional; settings: MDA-MB-468, 168 h, time 7 day
[6] = target: T1, von Hippel-Lindau disease tumor suppressor/Protein arginine N-methyltransferase 5; assay: PROTAC activity at PRMT5/VHL in human PC-3 cells assessed as degradation at 0.5 to 5 uM after 7 hrs by Western blot analysis; format: cell-based; settings: dose 0.5-5 µM
[7] = target: T2, von Hippel-Lindau disease tumor suppressor/Methylosome protein WDR77; assay: PROTAC activity at MEP50/VHL in human PC-3 cells assessed as degradation at 0.5 to 5 uM after 7 hrs by Western blot analysis; format: cell-based; settings: dose 0.5-5 µM
[8] = system: MDA-MB-468; assay: Inhibition of sDMA (symmetric dimethylarginine) level in human MDA-MB-468 cells at 0.5 uM measured after 72 hrs by Western blot analysis; format: functional, cell-based
[9] = system: MDA-MB-468; assay: Inhibition of sDMA (symmetric dimethylarginine) level in human MDA-MB-468 cells at 5 uM measured after 72 hrs by Western blot analysis; format: functional, cell-based
[10] = system: MDA-MB-468; assay: Inhibition of sDMA (symmetric dimethylarginine) level in human MDA-MB-468 cells at 2 uM measured after 7 days by Western blot analysis; format: functional, cell-based; settings: time 7.0 day
[11] = target: T1, von Hippel-Lindau disease tumor suppressor/Protein arginine N-methyltransferase 5; assay: PROTAC activity at PRMT5/VHL in human MDA-MB-468 cells assessed as degradation measured at 0.5 to 5 uM after 24 hrs by Western blot analysis; format: cell-based; settings: dose 0.5-5 µM
[12] = target: T2, von Hippel-Lindau disease tumor suppressor/Methylosome protein WDR77; assay: PROTAC activity at MEP50/VHL in human MDA-MB-468 cells assessed as degradation measured at 0.5 to 5 uM after 24 hrs by Western blot analysis; format: cell-based; settings: dose 0.5-5 µM
[13] = target: T1, von Hippel-Lindau disease tumor suppressor/Protein arginine N-methyltransferase 5; assay: PROTAC activity at PRMT5/VHL in human MCF-10A cells assessed as degradation at 0.5 to 5 uM after 3 days by Western blot analysis; format: cell-based; settings: dose 0.5-5 µM, time 3.0 day
[14] = system: MCF-10A; assay: PROTAC activity at MEP50/VHL in human MCF-10A cells assessed as degradation at 0.5 to 5 uM after 3 days by Western blot analysis; format: cell-based; settings: dose 0.5-5 µM, time 3.0 day
[15] = target: T2, von Hippel-Lindau disease tumor suppressor/Methylosome protein WDR77; assay: PROTAC activity at MEP50/VHL in human PNT2 cells assessed as degradation at 0.5 to 5 uM after 3 days by Western blot analysis; format: cell-based; settings: dose 0.5-5 µM, time 3.0 day
[16] = system: MCF-10A; assay: Cytotoxicity against human MCF10A cells assessed as cell viability up to 15 uM measured after 5 days by CCK-8 assay; format: toxicity, cell-based; settings: 120 h, time 5 day
[17] = PROTAC activity at PRMT5/VHL in human PNT2 cells assessed as degradation at 0.5 to 5 uM after 3 days by Western blot analysis; settings: dose 0.5-5 µM, time 3.0 day
[18] = target: T1, von Hippel-Lindau disease tumor suppressor/Protein arginine N-methyltransferase 5; assay: PROTAC activity at […]/VHL in human MDA-MB-468 cells assessed as relative protein level at 0.5 uM measured after 24 hrs by Western blot analysis; format: cell-based
[19] = target: T1, von Hippel-Lindau disease tumor suppressor/Protein arginine N-methyltransferase 5; assay: PROTAC activity at PRMT5/VHL in human MDA-MB-468 cells assessed as relative protein level at 5 uM measured after 24 hrs by Western blot analysis; format: cell-based
[20] = target: T2, von Hippel-Lindau disease tumor suppressor/Methylosome protein WDR77; assay: PROTAC activity at MEP50/VHL in human MDA-MB-468 cells assessed as relative protein level at 0.5 uM measured after 24 hrs by Western blot analysis; format: cell-based
[21] = target: T2, von Hippel-Lindau disease tumor suppressor/Methylosome protein WDR77; assay: PROTAC activity at MEP50/VHL in human MDA-MB-468 cells assessed as relative protein level at 5 uM measured after 24 hrs by Western blot analysis; format: cell-based
[22] = target: T1, von Hippel-Lindau disease tumor suppressor/Protein arginine N-methyltransferase 5; assay: PROTAC activity at PRMT5/VHL in human MDA-MB-468 cells assessed as maximal degradation at 5 uM measured after 72 hrs by Western blot analysis relative to control; format: cell-based
[23] = target: T2, von Hippel-Lindau disease tumor suppressor/Methylosome protein WDR77; assay: PROTAC activity at MEP50/VHL in human MDA-MB-468 cells assessed as maximal degradation at 5 uM measured after 72 hrs by Western blot analysis relative to control; format: cell-based
[24] = target: T1, von Hippel-Lindau disease tumor suppressor/Protein arginine N-methyltransferase 5; assay: PROTAC activity at PRMT5/VHL in human MDA-MB-468 cells assessed as degradation at 2 uM measured up to 12 hrs by Western blot analysis; format: cell-based
[25] = target: T2, von Hippel-Lindau disease tumor suppressor/Methylosome protein WDR77; assay: PROTAC activity at MEP50/VHL in human MDA-MB-468 cells assessed as degradation at 2 uM measured up to 48 hrs by Western blot analysis; format: cell-based
[26] = target: Protein arginine N-methyltransferase 5 (Homo sapiens, UniProt O14744); assay: Inhibition of PRMT5 (unknown origin) using S-adenosylmethionine (SAM) using as substrate preincubated for 30 mins followed by substrate addition measured after 60 mins by microplate reader
[27] = target: T1, von Hippel-Lindau disease tumor suppressor/Protein arginine N-methyltransferase 5; assay: PROTAC activity at PRMT5/VHL in human MCF7 cells assessed as degradation at 0.5 uM after 3 days by Western blot analysis; format: cell-based; settings: time 3.0 day
[28] = target: T1, von Hippel-Lindau disease tumor suppressor/Protein arginine N-methyltransferase 5; assay: PROTAC activity at PRMT5/VHL in human MCF7 cells assessed as degradation at 5 uM after 3 days by Western blot analysis; format: cell-based; settings: time 3.0 day
[29] = target: T2, von Hippel-Lindau disease tumor suppressor/Methylosome protein WDR77; assay: PROTAC activity at MEP50/VHL in human MCF7 cells assessed as degradation at 0.5 uM after 3 days by Western blot analysis; format: cell-based; settings: time 3.0 day
[30] = target: T2, von Hippel-Lindau disease tumor suppressor/Methylosome protein WDR77; assay: PROTAC activity at MEP50/VHL in human MCF7 cells assessed as degradation at 5 uM after 3 days by Western blot analysis; format: cell-based; settings: time 3.0 day

T1 sequence (O14744 whole entry, looked up): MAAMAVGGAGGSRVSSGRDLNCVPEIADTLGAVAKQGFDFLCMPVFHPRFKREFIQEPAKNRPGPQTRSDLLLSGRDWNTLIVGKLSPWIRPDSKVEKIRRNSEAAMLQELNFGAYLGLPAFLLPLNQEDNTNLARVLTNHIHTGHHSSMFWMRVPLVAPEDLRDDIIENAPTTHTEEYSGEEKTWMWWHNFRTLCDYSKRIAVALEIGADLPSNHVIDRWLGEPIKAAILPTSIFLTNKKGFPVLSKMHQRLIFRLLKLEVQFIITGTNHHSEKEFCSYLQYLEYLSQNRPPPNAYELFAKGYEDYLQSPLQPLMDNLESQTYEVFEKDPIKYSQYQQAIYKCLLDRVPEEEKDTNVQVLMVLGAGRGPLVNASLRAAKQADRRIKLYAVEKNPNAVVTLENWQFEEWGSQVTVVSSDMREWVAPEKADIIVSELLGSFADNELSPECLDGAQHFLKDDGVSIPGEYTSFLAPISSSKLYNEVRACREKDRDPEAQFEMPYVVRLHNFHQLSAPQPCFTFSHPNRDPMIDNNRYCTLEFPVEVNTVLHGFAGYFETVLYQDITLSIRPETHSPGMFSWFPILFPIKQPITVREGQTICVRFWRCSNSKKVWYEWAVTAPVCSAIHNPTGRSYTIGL
T1 sequence (P40337 whole entry, looked up): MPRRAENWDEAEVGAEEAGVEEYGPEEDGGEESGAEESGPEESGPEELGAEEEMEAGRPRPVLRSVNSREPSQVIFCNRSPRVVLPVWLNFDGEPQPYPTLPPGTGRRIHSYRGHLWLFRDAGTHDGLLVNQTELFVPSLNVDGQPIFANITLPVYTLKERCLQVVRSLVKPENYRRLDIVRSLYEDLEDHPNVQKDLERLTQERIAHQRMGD
T2 sequence (P40337 whole entry, looked up): as above
T2 sequence (Q9BQA1 whole entry, looked up): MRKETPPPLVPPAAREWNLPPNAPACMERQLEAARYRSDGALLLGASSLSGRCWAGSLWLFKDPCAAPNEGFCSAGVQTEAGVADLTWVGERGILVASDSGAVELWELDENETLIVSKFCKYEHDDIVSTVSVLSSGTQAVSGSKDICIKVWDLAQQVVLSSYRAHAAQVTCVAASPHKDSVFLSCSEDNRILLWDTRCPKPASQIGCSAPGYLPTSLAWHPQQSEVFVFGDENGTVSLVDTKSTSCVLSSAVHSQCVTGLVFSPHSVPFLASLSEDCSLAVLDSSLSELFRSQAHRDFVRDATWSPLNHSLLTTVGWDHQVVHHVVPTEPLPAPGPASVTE
Sequence of Protein arginine N-methyltransferase 5 (O14744 whole entry): as the sequence (O14744 whole entry, looked up) above

Cc1ncsc1-c1ccc([C@H](CC(=O)NCCOCCOCCOCCOCCOCCC(=O)N2CCC(Nc3cc(C(=O)NC[C@H](O)CN4CCCCC4)ncn3)CC2)NC(=O)[C@@H]2C[C@@H](O)CN2C(=O)[C@@H](NC(=O)C2(F)CC2)C(C)(C)C)cc1
Activity [1]: inactive | Activity [2]: inactive | Activity [3]: inactive | Activity [4]: inactive | GI50 [5]: > 20 µM | Activity [6]: inactive | Activity [7]: inactive

Cc1ncsc1-c1ccc([C@H](CC(=O)NCCOCCOCCOCCOCCOCCC(=O)N2CCC(Nc3cc(C(=O)NC[C@H](O)CN4CCc5ccccc5C4)ncn3)CC2)NC(=O)[C@@H]2C[C@H](O)CN2C(=O)[C@@H](NC(=O)C2(F)CC2)C(C)(C)C)cc1
Activity [1]: inactive | Activity [2]: inactive | Activity [3]: inactive | Activity [4]: inactive | GI50 [5]: 9.9 µM | Activity [6]: inactive | Activity [7]: inactive

O=C(NC[C@H](O)CN1CCc2ccccc2C1)c1cc(NC2COC2)ncn1
Activity [1]: inactive | Activity [2]: inactive | Activity [3]: inactive | Activity [4]: inactive | inhibition [8]: Active | inhibition [9]: Active | GI50 [5]: 0.23 µM | inhibition [10]: Active; Compound Inhibited Greater Extent Than Ms4322

O=C1CCC(N2C(=O)c3ccc(NCCCCCCCCCC(=O)N4CCC(Nc5cc(C(=O)NC[C@H](O)CN6CCc7ccccc7C6)ncn5)CC4)cc3C2=O)C(=O)N1 (stereo not given in full)
Activity [11]: inactive | Activity [12]: inactive | Activity [13]: 50% | Activity [14]: 50% | Activity [15]: 50% | Activity [16]: Toxic | Activity [17]: 50%

Cc1ncsc1-c1ccc([C@H](CC(=O)NCCOCCOCCOCCC(=O)N2CCC(Nc3cc(C(=O)NC[C@H](O)CN4CCc5ccccc5C4)ncn3)CC2)NC(=O)[C@@H]2C[C@@H](O)CN2C(=O)[C@@H](NC(=O)C2(F)CC2)C(C)(C)C)cc1
Activity [18]: Active | Activity [19]: Active | Activity [20]: Active | Activity [21]: Active

Cc1ncsc1-c1ccc(CNC(=O)[C@@H]2C[C@@H](O)CN2C(=O)[C@@H](NC(=O)C2(F)CC2)C(C)(C)C)c(OCC(=O)NCCCCC(=O)N2CCC(Nc3cc(C(=O)NC[C@H](O)CN4CCc5ccccc5C4)ncn3)CC2)c1
Activity [18]: Active | Activity [19]: Active | Activity [20]: Active | Activity [21]: Active

Cc1ncsc1-c1ccc([C@H](CC(=O)NCCC(=O)N2CCC(Nc3cc(C(=O)NC[C@H](O)CN4CCc5ccccc5C4)ncn3)CC2)NC(=O)[C@@H]2C[C@@H](O)CN2C(=O)[C@@H](NC(=O)C2(F)CC2)C(C)(C)C)cc1
Activity [18]: Active | Activity [19]: Active | Activity [20]: Active | Activity [21]: Active

Cc1ncsc1-c1ccc([C@H](CC(=O)NCCCC(=O)N2CCC(Nc3cc(C(=O)NC[C@H](O)CN4CCc5ccccc5C4)ncn3)CC2)NC(=O)[C@@H]2C[C@@H](O)CN2C(=O)[C@@H](NC(=O)C2(F)CC2)C(C)(C)C)cc1
Activity [18]: Active | Activity [19]: Active | Activity [20]: Active | Activity [21]: Active

Cc1ncsc1-c1ccc([C@H](CC(=O)NCCOCCC(=O)N2CCC(Nc3cc(C(=O)NC[C@H](O)CN4CCc5ccccc5C4)ncn3)CC2)NC(=O)[C@@H]2C[C@@H](O)CN2C(=O)[C@@H](NC(=O)C2(F)CC2)C(C)(C)C)cc1
Activity [18]: inactive | Activity [19]: inactive | Activity [20]: inactive | Activity [21]: inactive

Cc1ncsc1-c1ccc([C@H](CC(=O)NCCOCCOCCOCCOCCC(=O)N2CCC(Nc3cc(C(=O)NC[C@H](O)CN4CCc5ccccc5C4)ncn3)CC2)NC(=O)[C@@H]2C[C@@H](O)CN2C(=O)[C@@H](NC(=O)C2(F)CC2)C(C)(C)C)cc1
Activity [18]: Active | Activity [19]: Active | Activity [20]: Active | Activity [21]: Active

Cc1ncsc1-c1ccc(CNC(=O)[C@@H]2C[C@@H](O)CN2C(=O)[C@@H](NC(=O)C2(F)CC2)C(C)(C)C)c(OCC(=O)NCCOCCOCCOCCOCCOCCC(=O)N2CCC(Nc3cc(C(=O)NC[C@H](O)CN4CCc5ccccc5C4)ncn3)CC2)c1
Activity [18]: inactive | Activity [19]: inactive | Activity [20]: inactive | Activity [21]: Active

Cc1ncsc1-c1ccc(CNC(=O)[C@@H]2C[C@@H](O)CN2C(=O)[C@@H](NC(=O)C2(F)CC2)C(C)(C)C)c(OCC(=O)NCCCC(=O)N2CCC(Nc3cc(C(=O)NC[C@H](O)CN4CCc5ccccc5C4)ncn3)CC2)c1
Activity [18]: Active | Activity [19]: Active | Activity [20]: Active | Activity [21]: Active

Cc1ncsc1-c1ccc([C@H](C)NC(=O)[C@@H]2C[C@@H](O)CN2C(=O)[C@@H](NC(=O)COCCOCCOCCOCCOCC(=O)N2CC(Nc3cc(C(=O)NC[C@H](O)CN4CCc5ccccc5C4)ncn3)C2)C(C)(C)C)cc1
Activity [22]: 50% | Activity [23]: 50% | Activity [24]: Active | Activity [25]: inactive | IC50 [26]: 0.69 µM | GI50 [5]: > 20 µM | Activity [27]: Active | Activity [28]: Active | Activity [29]: Active | Activity [30]: Active

Cc1ncsc1-c1ccc(CNC(=O)[C@@H]2C[C@@H](O)CN2C(=O)[C@@H](NC(=O)C2(F)CC2)C(C)(C)C)c(OCC(=O)NCC(=O)N2CCC(Nc3cc(C(=O)NC[C@H](O)CN4CCc5ccccc5C4)ncn3)CC2)c1
Activity [18]: Active | Activity [19]: Active | Activity [20]: Active | Activity [21]: Active
